From patent US4859696A, “Precutaneous absorption accelerator and preparation containing same” (Kao Corporation, priority 1984, dated 1989)

Legend:
[1] = Change in blood sugar level after rectal administration of insulin solutions to rabbits; format: in vivo, rabbit (Japanese white male)
Experimental: Japanese white male rabbits weighing about 2.5 kg, fasted for 24 hours, were fixed at the back, and each of solutions shown in Table 1 was administered to the rectum of about 2.5 cm from the anus using a tube. Cannule was inserted into the femoral vein of the hind leg to collect about 0.2 ml each of blood in every fixed time interval. Blood sugar level was measured using destrostick. Change in blood sugar level was determined with the passage of time, as the blood sugar level prior to administration being rendered 100%.

carrageenin caused edema = assay: Inhibition of carrageenin caused edema on the paw of the rat; format: in vivo, rat (Wistar male); conditions: as compared to the comparative preparation
Experimental: With respect to the topical agents of the present invention, the pharmacological effect was examined according to the inhibition of carrageenin caused edema on the paw of the rat.
Wistar male 10 rats, weighing about 110 g, were used as one group. The volume of the right rear paw of the rats in each group was previously measured using a branched glass container. A 1% carrageenin aqueous solution was subcutaneously injected to the right rear paw sole in a dose of 0.125 ml. Immediately thereafter 0.3 g of indomethacin topical agents were applied to the skin of the right rear paw sole. In the control group, carrageenin alone was injected. Then, the volume of the rear paw was measured every 90 minutes, which was continued until 6 hours after. The rate of edema and the inhibition rate of edema were calculated as described below. [formula]

[2] = Test of percutaneous absorption of indomethacin; format: in vivo, rabbit (Japanese white female); conditions: as compared to the comparative preparations
Experimental: Topical agents containing indometacin shown below were prepared and percutaneous absorption was examined with the topical agents.
Seven (7) Japanese white female rabbits weighing about 3 kg were used as one group. The topical agents of the present invention and the comparative preparations were applied onto the normal abdominal skin (10 cm×14 cm) of the rabbits in each group, from which the body hair was cut, respectively, at a dose corresponding to 20 mg of indomethacin. Blood was collected from the vein of the ear after 4, 10 and 20 hours and, blood concentration of indomethacin was measured.

[3] = Test for percutaneous absorption of methyl salicylate (cataplasms); format: in vivo, rabbit (Japanese white female); conditions: as compared to the cataplasm for comparison
Experimental: Cataplasms shown below were prepared and, the percutaneous absorption of methyl salicylate was tested.
Seven (7) Japanese white female rabbits weighing about 3 kg were used as one group. […] Blood was collected from the vein of the femur after 3, 6, 10, 20 and 30 hours and, blood concentration of methyl salicylate was measured.

[4] = 15 mins., this invention, ether derivative 0.1 g with insulin 10/kg, saline 0.65 g, ethanol 0.25 g
[5] = 30 mins., this invention, ether derivative 0.1 g with insulin 10/kg, saline 0.65 g, ethanol 0.25 g
[6] = 45 mins., this invention, ether derivative 0.1 g with insulin 10/kg, saline 0.65 g, ethanol 0.25 g
[7] = 60 mins., this invention, ether derivative 0.1 g with insulin 10/kg, saline 0.65 g, ethanol 0.25 g
[8] = 90 mins., this invention, ether derivative 0.1 g with insulin 10/kg, saline 0.65 g, ethanol 0.25 g
[9] = 120 mins., this invention, ether derivative 0.1 g with insulin 10/kg, saline 0.65 g, ethanol 0.25 g

Molecule: 1-O-methyl-branched isostearyl-3-O-methyl-2-O-2',3'-dihydroxypropylglycerol
- Rate of Change in Blood Sugar Level before Administration [1, 4]: -17.8%
- Rate of Change in Blood Sugar Level before Administration [1, 5]: -18.3%
- Rate of Change in Blood Sugar Level before Administration [1, 6]: -24.5%
- Rate of Change in Blood Sugar Level before Administration [1, 7]: -28.6%
- Rate of Change in Blood Sugar Level before Administration [1, 8]: -21.9%
- Rate of Change in Blood Sugar Level before Administration [1, 9]: -19.8%

Molecule: CCCCCCCCCCCCOCC(COC)OCC(O)CO (stereo not drawn) [1-O-n-dodecyl-3-O-methyl-2-O-2',3'-dihydroxypropylglycerol]
- Rate of Change in Blood Sugar Level before Administration ([1]; 15 mins., control, ether derivative 1 g): +6.5%
- Rate of Change in Blood Sugar Level before Administration ([1]; 15 mins., this invention, ether derivative 0.05 g with insulin 10/kg, saline 0.70 g, ethanol 0.25 g): -13.4%
- Rate of Change in Blood Sugar Level before Administration [1, 4]: -19.2%
- Rate of Change in Blood Sugar Level before Administration ([1]; 30 mins., control, ether derivative 1 g): +10.2%
- Rate of Change in Blood Sugar Level before Administration ([1]; 30 mins., this invention, ether derivative 0.05 g with insulin 10/kg, saline 0.70 g, ethanol 0.25 g): -18.6%
- Rate of Change in Blood Sugar Level before Administration [1, 5]: -28.9%
- Rate of Change in Blood Sugar Level before Administration ([1]; 45 mins., control, ether derivative 1 g): +9.8%
- Rate of Change in Blood Sugar Level before Administration ([1]; 45 mins., this invention, ether derivative 0.05 g with insulin 10/kg, saline 0.70 g, ethanol 0.25 g): -25.2%
- Rate of Change in Blood Sugar Level before Administration [1, 6]: -32.7%
- Rate of Change in Blood Sugar Level before Administration ([1]; 60 mins., control, ether derivative 1 g): +9.5%
- Rate of Change in Blood Sugar Level before Administration ([1]; 60 mins., this invention, ether derivative 0.05 g with insulin 10/kg, saline 0.70 g, ethanol 0.25 g): -27.6%
- Rate of Change in Blood Sugar Level before Administration [1, 7]: -28.0%
- Rate of Change in Blood Sugar Level before Administration ([1]; 90 mins., control, ether derivative 1 g): +9.5%
- Rate of Change in Blood Sugar Level before Administration ([1]; 90 mins., this invention, ether derivative 0.05 g with insulin 10/kg, saline 0.70 g, ethanol 0.25 g): -25.8%
- Rate of Change in Blood Sugar Level before Administration [1, 8]: -19.5%
- Rate of Change in Blood Sugar Level before Administration ([1]; 120 mins., control, ether derivative 1 g): +10.2%
- Rate of Change in Blood Sugar Level before Administration ([1]; 120 mins., this invention, ether derivative 0.05 g with insulin 10/kg, saline 0.70 g, ethanol 0.25 g): -22.4%
- Rate of Change in Blood Sugar Level before Administration [1, 9]: -18.2%
- rate of preventing the edema / pharmacological effect of indomethacin (in words) (carrageenin caused edema): extremely high pharmacological effect of indomethacin
- percutaneous absorption of indomethacin (in words) [2]: extremely high percutaneous absorption of indomethacin
- percutaneous absorption of methyl salicylate (in words) [3]: extremely high percutaneous absorption of methyl salicylate

Molecule: Insulin: Insulin 10/kg in 25% Ethanol solution (control of Table 1)
- Rate of Change in Blood Sugar Level before Administration ([1]; 15 mins., control, insulin 10/kg in 25% ethanol solution): +5.0%
- Rate of Change in Blood Sugar Level before Administration ([1]; 30 mins., control, insulin 10/kg in 25% ethanol solution): +12.9%
- Rate of Change in Blood Sugar Level before Administration ([1]; 45 mins., control, insulin 10/kg in 25% ethanol solution): +11.5%
- Rate of Change in Blood Sugar Level before Administration ([1]; 60 mins., control, insulin 10/kg in 25% ethanol solution): +4.8%
- Rate of Change in Blood Sugar Level before Administration ([1]; 90 mins., control, insulin 10/kg in 25% ethanol solution): +1.5%
- Rate of Change in Blood Sugar Level before Administration ([1]; 120 mins., control, insulin 10/kg in 25% ethanol solution): +2.7%
